In brackets after ≈: the same amount, converted by molar mass.

Data set [1] can be described thus: Solubility measurement of RB and lipophilic derivatives of RB in PBS and 1-octanol. In kind it is physicochemical. As to the method:
The sonochemical sensitizers of the invention, namely RB—COOH—Cn species (n being the number of carbon atoms in the straight alkyl group) were examined for their solubility in an aqueous solution and in an organic solvent. The aqueous solution used was a phosphate buffer solution (hereinafter, PBS) with a pH of 7.4 and the organic solvent used was 1-octanol.
First, saturated solutions of each RB—COOH—Cn in PBS and in 1-octanol were prepared at 25° C. and each solution was measured for its ultraviolet-visible absorption spectrum. Based on the molar absorptivity determined beforehand by measuring the ultraviolet-visible absorption spectrum of a solution having a known concentration, the agent concentration in the saturated solution was estimated.
For comparison, the starting material RB and two kinds of RB derivative, for which an attempt was made to increase the lipophilicity by a method other than that of the invention, namely rose bengal alkyl esters (hereinafter, RB—Cn, n being the number of carbon atoms in the alkyl group) and rose bengal fatty acid esters (hereinafter, RB—Cn—COOH, n being the number of carbon atoms in the methylene chain), were also subjected to solubility measurement.
In the solubility measurement, the respective derivatives having an equal number of carbon atoms in the alkyl group (n=7) were used.

For data set [2], the system named is murine experimental tumor Colone 26. Nature of the data set: Evaluation of the accumulation of RB—COOH—Cn in tumor tissues (fluorescence intensity ratio). The data set is classed as in vivo. The conditions noted are these: tumor bearing CDF1 mice, intravenous, 10 mg/kg, until 120 minutes after administration, FIG. 3. As to the method: Tumor bearing mice were intravenously administered with RB or RB—Cn and, after the lapse of a predetermined period, tumor tissues were excised. The fluorescence spectrum of the agent extracted from the tumor tissues was measured and the concentration of the agent was estimated from the fluorescence intensity to thereby evaluate the accumulability in tumor tissues. Mice subjected to the test were 5-week male CDF1 mice one to two weeks after subcutaneous implantation of small pieces (e.g. 1 mm^3 pieces) of the murine experimental tumor Colone 26. The dose of the agent was 10 mg/kg and methanol or chloroform was used for the extraction.
Tumor bearing mice were intravenously administered with RB or RB—COOH—Cn and, after the lapse of a predetermined period, tumor tissues were excised. The fluorescence intensity of the tumor tissues was measured and the accumulability in tumor tissues was evaluated based on the ratio of that intensity and the fluorescence intensity of an internal standard (fluorescence intensity ratio). The mice used in the test and the dose of the agent were the same as in Test Example 3. As an example of the results, the relation between the time from agent administration to mice to tumor tissue excision and the fluorescence intensity ratio is shown in FIG. 3 for each of RB and RB—COOH—Cn species containing 2, 3, 7 or 15 carbon atoms in the alkyl group (RB—COOH—C2, RB—COOH—C3, RB—COOH—C7 and RB—COOH—C15).

A short description of data set [3]: Evaluation of the acoustic cavitation promoting effect (subharmonic signal upon ultrasound irradiation). The conditions noted are these: 0.1 mmol/L in PBS (pH 7.4), 0.5 MHz and 1 MHz, acoustic intensity 5 W/cm^2, 1 minute. Here is the method: A 0.1 mmol/L solution of RB—Cn in PBS (pH 7.4, containing 1% DMF) was sealed in a polyethylene bag (30×25 mm, 0.03 mm thick) and irradiated with ultrasonic waves of 0.5 MHz and 1 MHZ simultaneously under conditions of an acoustic intensity of 5 or 10 W/cm^2 and an exposure time of 1 minute, using an experimental apparatus having the constitution shown in FIG. 4.
In FIG. 4, 10 indicates degassed water, 11—a water tank, 12—a polyethylene bag, 13—a sample solution, 14-1 and 14-2 each—a holdfast, 15—a hanger, 16—a hydrophone, 17—a supporter, 18—an ultrasound transducer, 19—a supporter, 20—a signal processor, 21—an amplifier, 22—a spectrum analyzer, 23—an amplifier, and 24—a wave generator.
The acoustic signals at the subharmonic (250 kHz) characteristic to acoustic cavitation were measured at one-second intervals using a focusing type hydrophone, the root mean square of the signal amplitudes during the irradiation period was calculated and this was used as an indication of acoustic cavitation.
For comparison, a 0.1 mmol/L solution of RB in PBS (pH 7.4) was also measured for subharmonic signals. […] For each of RB and the RB—Cn species containing 3, 6 or 18 carbon atoms in the alkyl group (RB—C3, RB—C6 and RB—C18), the relation between acoustic intensity and subharmonic intensity is shown in FIG. 6.
Using a 0.1 mmol/L solution of RB—COOH—Cn in PBS (pH 7.4), the acoustic cavitation promoting effect was evaluated in the same manner as in Test Example 5.
Using a 0.1 mmol/L solution of xanthene dye sensitizer—COOH—Cn in PBS (pH 7.4), the acoustic cavitation promoting effect was evaluated in the same manner as in Test Example 5.

A short description of data set [4]: Evaluation of the photosensitivity (photo-oxidation reaction of iodide). The conditions noted are these: light of 365 nm, DMF solution, FIG. 9 / FIG. 10. As to the method: The photo-oxidation reaction of iodide as represented by Equation 4 was carried out in the presence of RB—Cn and the photosensitivity of the compound was evaluated.
A mixed solution composed of 2 mL of a 0.1 mol/L solution of potassium iodide in DMF and 1 mL of a 1 mmol/L solution of RB—Cn in DMF was placed in a glass dish (48 mm in diameter) and irradiated with light of 365 nm for a predetermined period. The absorbance, at 350 nm, of the sample was measured before and after exposure. 350 nm is the absorption maximum wavelength of I3^—. Based on the absorbance (A), the concentration of I3^— was calculated using Equation 5.
The procedure of Test Example 8 was followed in the presence of RB—COOH—Cn.

The nature of data set [5]: Evaluation for bubble stability. The data set is classed as physicochemical. The conditions noted are these: 0.1 mmol/L in PBS (pH 7.4), 4 mL shaken 5 minutes. Here is the method: Using a 0.1 mmol/L solution of RB—COOH—C7 in PBS (pH 7.4), the stability of bubbles was measured. 4 mL of the solution of RB—COOH—C7 was placed in a test tube having a length of […] and shaken on a shaker for 5 minutes and then the time until the disappearance of the bubbles was measured. PBS was used as a control.

A short description of data set [6]: Evaluation for contrast-enhancing effect (ultrasound imaging). The conditions noted are these: dog, 5 mL of 0.1 mmol/L solution intravenously, 5 MHz linear probe, mode B. In kind it is in vivo. Here is the method:
Using an ultrasound diagnostic system equipped with a linear probe with a central frequency of 5 MHz, 5 mL of the solution of RB—COOH—C7 obtained in Test Example 10 was intravenously administered to a dog (weighing 12 kg, 2 years old) while ultrasonically scanning the hepatic region of the dog with mode B. Immediately thereafter, 5 mL of physiological saline was administered. After administration, the hepatic artery and aorta were imaged and the imaging lasted for about 30 seconds.

For the compound `O=C(O)CCCCCCCOC(=O)c1c(Cl)c(Cl)c(Cl)c(Cl)c1-c1c2cc(I)c(=O)c(I)c-2oc2c(I)c(O)c(I)cc12` [RB—COOH—C7, Rose bengal-α-carboxyheptyl ester], in data set [1] (1-octanol), the “solubility in the organic solvent relative to that of RB—C7—COOH” value is given as “about 5 times”. In addition, in data set [1] (25° C.), the “solubility in 1-octanol (organic solvent) relative to the solubility of RB” value is recorded as 120 times. For the same compound, the “solubility in the aqueous solution relative to that of RB—C7” value in data set [1] (PBS (pH 7.4), 25° C.) worked out at 83 times. The “solubility in PBS (pH 7.4)” value in data set [1] (saturated solution at 25° C., aqueous solution) is reported as 0.83 mmol/l. Moreover, in data set [1] (saturated solution at 25° C., organic solvent), the “solubility in 1-octanol” value stood at 12 mM (≈ 13.4 mg/mL). For the same compound, the “occurrence/concentration in tumor tissues (fluorescence intensity ratio to internal standard)” value in data set [2] is reported as “higher than that of RB”. The subharmonic generation result in data set [3] is reported as “observed”. The “relation between light exposure time and yield in photo-oxidation of iodide” value in data set [4] was “almost proportional to the exposure time”. In addition, the “time bubbles remain after shaking” value in data set [5] is “about 120 seconds”. Further, the “duration of imaging of hepatic artery and aorta” value in data set [6] is “about 30 seconds”.

The values are drawn from patent US6572839B2, “Sensitizer for tumor treatment” (Hitachi, Ltd., priority 2000, dated 2003).
